Assay: toxicity in mice: body weight and observations after IP administration
Format: in vivo
How it was run: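 Mice (female where stated) received the test compound intraperitoneally on day 1, dissolved in 20% hydroxypropylcyclodextrane at an administration volume of 10 ml/kg. Toxicity was assessed from body weight, body weight change (% wt/wt) and observations of the animals after administration.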

[1] = female mice, 100 mg/kg IP, day 1
[2] = female mice, 100 mg/kg IP, day 2
[3] = female mice, 100 mg/kg IP, day 3
[4] = female mice, 100 mg/kg IP, day 4
[5] = female mice, 100 mg/kg IP, day 5
[6] = female mice, 100 mg/kg IP, day 6
[7] = female mice, 100 mg/kg IP, day 7
[8] = female mice, 100 mg/kg IP, day 8
[9] = female mice, 100 mg/kg IP, day 9
[10] = female mice, 100 mg/kg IP, day 10
[11] = female mice, 100 mg/kg IP, day 11
[12] = female mice, 100 mg/kg IP, day 12
[13] = female mice, 100 mg/kg IP, day 13
[14] = female mice, 100 mg/kg IP, day 14
[15] = female mice, 100 mg/kg IP, day 15
[16] = female mice, 200 mg/kg IP, day 1
[17] = female mice, 200 mg/kg IP, day 2
[18] = female mice, 200 mg/kg IP, day 3
[19] = female mice, 200 mg/kg IP, day 4
[20] = female mice, 200 mg/kg IP, day 5
[21] = female mice, 200 mg/kg IP, day 6
[22] = female mice, 200 mg/kg IP, day 7
[23] = female mice, 200 mg/kg IP, day 8
[24] = female mice, 200 mg/kg IP, day 9
[25] = female mice, 200 mg/kg IP, day 10
[26] = female mice, 200 mg/kg IP, day 11
[27] = female mice, 200 mg/kg IP, day 12
[28] = female mice, 200 mg/kg IP, day 13
[29] = female mice, 200 mg/kg IP, day 14
[30] = female mice, 200 mg/kg IP, day 15
[31] = female mice, 400 mg/kg IP, day 1
[32] = female mice, 400 mg/kg IP, day 2
[33] = female mice, 400 mg/kg IP, day 3
[34] = female mice, 400 mg/kg IP, day 4
[35] = female mice, 400 mg/kg IP, day 5
[36] = female mice, 400 mg/kg IP, day 6
[37] = female mice, 400 mg/kg IP, day 7
[38] = female mice, 400 mg/kg IP, day 8
[39] = female mice, 400 mg/kg IP, day 9
[40] = female mice, 400 mg/kg IP, day 10
[41] = female mice, 400 mg/kg IP, day 11
[42] = female mice, 400 mg/kg IP, day 12
[43] = female mice, 400 mg/kg IP, day 13
[44] = female mice, 400 mg/kg IP, day 14
[45] = female mice, 400 mg/kg IP, day 15
[46] = male mice, 100 mg/kg IP, day 10
[47] = male mice, 100 mg/kg IP, day 11
[48] = male mice, 100 mg/kg IP, day 12
[49] = male mice, 100 mg/kg IP, day 13
[50] = male mice, 100 mg/kg IP, day 14
[51] = male mice, 100 mg/kg IP, day 15
[52] = male mice, 200 mg/kg IP, day 10
[53] = male mice, 200 mg/kg IP, day 11
[54] = male mice, 200 mg/kg IP, day 12
[55] = male mice, 200 mg/kg IP, day 13
[56] = male mice, 200 mg/kg IP, day 14
[57] = male mice, 200 mg/kg IP, day 15
[58] = male mice, 400 mg/kg IP, day 10
[59] = male mice, 400 mg/kg IP, day 11
[60] = male mice, 400 mg/kg IP, day 12
[61] = male mice, 400 mg/kg IP, day 13
[62] = male mice, 400 mg/kg IP, day 14
[63] = male mice, 400 mg/kg IP, day 15

## CC(C)c1ccc(-c2cn3nc(N4CCC(CN5CCN(CCO)CC5)CC4)sc3n2)cc1 [Compound E266, 2-(4-{1-[6-(4-isopropyl-phenyl)-imidazo[2,1-b][1,3,4]thiadiazol-2-yl]-piperidin-4-ylmethyl}-piperazin-1-yl)-ethanol]
[1]
  body weight: 36.1 g
  body weight change (% wt/wt): 0%
[2]
  body weight: 35.7 g
  body weight change (% wt/wt): −1.1%
[3]
  body weight: 36.1 g
  body weight change (% wt/wt): 0.0%
[4]
  body weight: 35.2 g
  body weight change (% wt/wt): −2.5%
[5]
  body weight: 34 g
  body weight change (% wt/wt): −5.8%
[6]
  body weight: 33.9 g
  body weight change (% wt/wt): −6.1%
[7]
  body weight: 34 g
  body weight change (% wt/wt): −5.8%
[8]
  body weight: 33.6 g
  body weight change (% wt/wt): −6.9%
[9]
  body weight: 32.4 g
  body weight change (% wt/wt): −10.2%
[10]
  body weight: 33.5 g
  body weight change (% wt/wt): −7.2%
[11]
  body weight: 32.6 g
  body weight change (% wt/wt): −9.7%
[12]
  body weight: 33.4 g
  body weight change (% wt/wt): −7.5%
[13]
  body weight: 32.8 g
  body weight change (% wt/wt): −9.1%
[14]
  body weight: 32.2 g
  body weight change (% wt/wt): −10.8%
[15]
  body weight: 32.4 g
  body weight change (% wt/wt): −10.2%
[16]
  body weight: 31.5 g
  body weight change (% wt/wt): 0%
[17]
  body weight: 30.5 g
  body weight change (% wt/wt): −3.2%
[18]
  body weight: 30.8 g
  body weight change (% wt/wt): −2.2%
[19]
  body weight: 30.6 g
  body weight change (% wt/wt): −2.9%
[20]
  body weight: 30.6 g
  body weight change (% wt/wt): −2.9%
[21]
  body weight: 30.9 g
  body weight change (% wt/wt): −1.9%
[22]
  body weight: 31 g
  body weight change (% wt/wt): −1.6%
[23]
  body weight: 31.1 g
  body weight change (% wt/wt): −1.3%
[24]
  body weight: 30.6 g
  body weight change (% wt/wt): −2.9%
[25]
  body weight: 31.2 g
  body weight change (% wt/wt): −1.0%
[26]
  body weight: 29.9 g
  body weight change (% wt/wt): −5.1%
[27]
  body weight: 30.6 g
  body weight change (% wt/wt): −2.9%
[28]
  body weight: 30.6 g
  body weight change (% wt/wt): −2.9%
[29]
  body weight: 30.8 g
  body weight change (% wt/wt): −2.2%
[30]
  body weight: 30.5 g
  body weight change (% wt/wt): −3.2%
[31]
  body weight: 31.1 g
  body weight change (% wt/wt): 0%
[32]
  body weight: 30.5 g
  body weight change (% wt/wt): −1.9%
[33]
  body weight: 29.6 g
  body weight change (% wt/wt): −4.8%
[34]
  body weight: 28.6 g
  body weight change (% wt/wt): −8.0%
[35]
  body weight: 28.4 g
  body weight change (% wt/wt): −8.7%
[36]
  body weight: 28.5 g
  body weight change (% wt/wt): −8.4%
[37]
  body weight: 28.4 g
  body weight change (% wt/wt): −8.7%
[38]
  body weight: 28.7 g
  body weight change (% wt/wt): −7.7%
[39]
  body weight: 29 g
  body weight change (% wt/wt): −6.8%
[40]
  body weight: 29.3 g
  body weight change (% wt/wt): −5.8%
[41]
  body weight: 29 g
  body weight change (% wt/wt): −6.8%
[42]
  body weight: 29.4 g
  body weight change (% wt/wt): −5.5%
[43]
  body weight: 29.8 g
  body weight change (% wt/wt): −4.2%
[44]
  body weight: 29.8 g
  body weight change (% wt/wt): 4.2%
[45]
  body weight: 29.2 g
  body weight change (% wt/wt): −6.1%
Male and female mice, 100-400 mg/kg IP in 20% hydroxypropylcyclodextrane, 10 ml/kg
  toxicity: not toxic
Male mice, 100 mg/kg IP, day 1
  body weight: 37.4 g
  body weight change (% wt/wt): 0%
Male mice, 100 mg/kg IP, day 2
  body weight: 38.2 g
  body weight change (% wt/wt): 2.1%
Male mice, 100 mg/kg IP, day 3
  body weight: 38 g
  body weight change (% wt/wt): 1.6%
Male mice, 100 mg/kg IP, day 4
  body weight: 37.3 g
  body weight change (% wt/wt): −0.3%
Male mice, 100 mg/kg IP, day 5
  body weight: 37.9 g
  body weight change (% wt/wt): 1.3%
Male mice, 100 mg/kg IP, day 6
  body weight: 37.5 g
  body weight change (% wt/wt): 0.3%
Male mice, 100 mg/kg IP, day 7
  body weight: 37.4 g
  body weight change (% wt/wt): 0.0%
Male mice, 100 mg/kg IP, day 8
  body weight: 37.5 g
  body weight change (% wt/wt): 0.3%
Male mice, 100 mg/kg IP, day 9
  body weight: 36.8 g
  body weight change (% wt/wt): −1.6%
[46]
  body weight: 37.2 g
  body weight change (% wt/wt): −0.5%
[47]
  body weight: 37.3 g
  body weight change (% wt/wt): −0.3%
[48]
  body weight: 37.3 g
  body weight change (% wt/wt): −0.3%
[49]
  body weight: 37.7 g
  body weight change (% wt/wt): 0.8%
[50]
  body weight: 38.1 g
  body weight change (% wt/wt): 1.9%
[51]
  body weight: 36.6 g
  body weight change (% wt/wt): −2.1%
Male mice, 200 mg/kg IP, day 1
  body weight: 37.8 g
  body weight change (% wt/wt): 0%
Male mice, 200 mg/kg IP, day 2
  body weight: 38.1 g
  body weight change (% wt/wt): 0.8%
Male mice, 200 mg/kg IP, day 3
  body weight: 38.2 g
  body weight change (% wt/wt): 1.1%
Male mice, 200 mg/kg IP, day 4
  body weight: 38.3 g
  body weight change (% wt/wt): 1.3%
Male mice, 200 mg/kg IP, day 5
  body weight: 37.6 g
  body weight change (% wt/wt): −0.5%
Male mice, 200 mg/kg IP, day 6
  body weight: 38 g
  body weight change (% wt/wt): 0.5%
Male mice, 200 mg/kg IP, day 7
  body weight: 39.2 g
  body weight change (% wt/wt): 3.7%
Male mice, 200 mg/kg IP, day 8
  body weight: 39.7 g
  body weight change (% wt/wt): 5.0%
Male mice, 200 mg/kg IP, day 9
  body weight: 38 g
  body weight change (% wt/wt): 0.5%
[52]
  body weight: 37.9 g
  body weight change (% wt/wt): 0.3%
[53]
  body weight: 38.2 g
  body weight change (% wt/wt): 1.1%
[54]
  body weight: 38.7 g
  body weight change (% wt/wt): 2.4%
[55]
  body weight: 37.9 g
  body weight change (% wt/wt): 0.3%
[56]
  body weight: 38.8 g
  body weight change (% wt/wt): 2.6%
[57]
  body weight: 37.6 g
  body weight change (% wt/wt): −0.5%
Male mice, 400 mg/kg IP, day 1
  body weight: 40.3 g
  body weight change (% wt/wt): 0%
Male mice, 400 mg/kg IP, day 2
  body weight: 40 g
  body weight change (% wt/wt): −.07%
Male mice, 400 mg/kg IP, day 3
  body weight: 41.3 g
  body weight change (% wt/wt): 2.5%
Male mice, 400 mg/kg IP, day 4
  body weight: 40.8 g
  body weight change (% wt/wt): 1.2%
Male mice, 400 mg/kg IP, day 5
  body weight: 39.6 g
  body weight change (% wt/wt): −1.7%
Male mice, 400 mg/kg IP, day 6
  body weight: 40.4 g
  body weight change (% wt/wt): 0.2%
Male mice, 400 mg/kg IP, day 7
  body weight: 40.5 g
  body weight change (% wt/wt): 0.5%
Male mice, 400 mg/kg IP, day 8
  body weight: 40.7 g
  body weight change (% wt/wt): 1.0%
Male mice, 400 mg/kg IP, day 9
  body weight: 39.4 g
  body weight change (% wt/wt): −2.2%
[58]
  body weight: 40 g
  body weight change (% wt/wt): −0.7%
[59]
  body weight: 39.7 g
  body weight change (% wt/wt): −1.5%
[60]
  body weight: 40.1 g
  body weight change (% wt/wt): −0.5%
[61]
  body weight: 40.1 g
  body weight change (% wt/wt): −0.5%
[62]
  body weight: 40.2 g
  body weight change (% wt/wt): −0.2%
[63]
  body weight: 39.3 g
  body weight change (% wt/wt): −2.5%
mice, IP administration
  observations after administration: a decrease in locomotor and piloererection right after administration were observed, these were reversible and full recovery was observed

— patent US12084459B2, “2-(4-{1-[6-(4-isopropyl-phenyl)-imidazo[2,1-b][1,3,4]thiadiazol-2-yl]-piperidin-4-ylmethyl}-piperazin-1-yl)-ethanol and use thereof” (Urifer Ltd., priority 2020, dated 2024)
